Results from article PMC8401933 (Molecules, 2021).
“Also recorded” adds a separate entry of the source.

What was measured:
3T3-L1 cells = test: Adipocyte differentiation, Oil Red O staining; assay type: cell-based; conditions: for quantity of lipid droplets (ORO staining): CX-4945 5 μM, KD025 3 μM
Procedure: The preadipocyte 3T3-L1 cell line was kindly provided by Dr. Hyun-Sung Park (University of Seoul) and cultured in Dulbecco’s modified Eagle’s medium (DMEM, Sigma-Aldrich) supplied with 10% heat-inactivated newborn calf serum (Invitrogen, CA, USA), 100 units/mL penicillin, and 100 µg/mL streptomycin (Cellgro, VA, USA). The cells were maintained in an incubator at 37 °C and 5% CO2. To initiate differentiation, the cells were incubated for additional days after 100% confluence and then further incubated in a medium containing fetal bovine serum (FBS) and a differentiation cocktail (DMI, 1 μM dexamethasone, 0.5 mM 3-isobutyl-1-methylxanthine, and 5 μg/mL insulin) as previously described. In brief, at day 3, the culture medium was replaced with DMEM/10%FBS containing 5 µg/mL insulin. Then, growth medium was changed every 2 days.
Lipid droplets of cells were stained using ORO (Sigma-Aldrich, MA, USA). In brief, the cells were washed with phosphate buffered saline and incubated with 10% formalin for 5 min. The cells were then fixed with the same volume of fresh formalin for at least 1 h. Subsequently, the cells were washed with 60% isopropanol, air dried completely, and then stained with ORO working solution (1% ORO/isopropanol: distilled water = 3:2). The stained cells were washed with water four times. Cell images were taken by a microscope (Nikon Eclipse TS100-F, Japan). Then, 100% isopropanol was added and incubated for 10 min to quantify the intensity of ORO. The quantity of extracted dye was obtained by obtaining absorbance at 540 nm in the Synergy H1 hybrid reader (BioTek, VT, USA).

[1] = target: T1, RSK1(Kin.Dom.1-N-terminal) (Homo sapiens, UniProt Q15418); test: KINOMEscan binding; conditions: read-out: Percent Control
T1 construct: RSK1(Kin.Dom.1-N-terminal); purchased Eurofins DiscoverX KINOMEscan

PIK3CD = target: T2, PIK3CD (Homo sapiens, UniProt O00329); test: KINOMEscan binding; conditions: read-out: Percent Control
T2 construct: purchased Eurofins DiscoverX KINOMEscan

ALK = target: T3, ALK (Homo sapiens, UniProt Q9UM73); test: KINOMEscan binding; conditions: read-out: Percent Control
T3 construct: purchased Eurofins DiscoverX KINOMEscan

TIE2 = target: T4, TIE2 (Homo sapiens, UniProt Q02763); test: KINOMEscan binding; conditions: read-out: Percent Control
T4 construct: purchased Eurofins DiscoverX KINOMEscan

TRKA = target: T5, TRKA (Homo sapiens, UniProt P04629); test: KINOMEscan binding; conditions: read-out: Percent Control
T5 construct: purchased Eurofins DiscoverX KINOMEscan

GRK1 = target: T6, GRK1 (Homo sapiens, UniProt Q15835); test: KINOMEscan binding; conditions: read-out: Percent Control
T6 construct: purchased Eurofins DiscoverX KINOMEscan

PFCDPK1(P.falciparum) = target: T7, PFCDPK1(P.falciparum) (Plasmodium falciparum, UniProt P62344); test: KINOMEscan binding; conditions: read-out: Percent Control
T7 construct: purchased Eurofins DiscoverX KINOMEscan

BMX = target: T8, BMX (Homo sapiens, UniProt P51813); test: KINOMEscan binding; conditions: read-out: Percent Control
T8 construct: purchased Eurofins DiscoverX KINOMEscan

SRMS = target: T9, SRMS (Homo sapiens, UniProt Q9H3Y6); test: KINOMEscan binding; conditions: read-out: Percent Control
T9 construct: purchased Eurofins DiscoverX KINOMEscan

FLT3-autoinhibited = target: T10, FLT3-autoinhibited (Homo sapiens, UniProt P36888); test: KINOMEscan binding; conditions: read-out: Percent Control
T10 construct: purchased Eurofins DiscoverX KINOMEscan

KIT(V559D) = target: T11, KIT(V559D) (Homo sapiens, UniProt P10721, V559D); test: KINOMEscan binding; conditions: read-out: Percent Control
T11 construct: purchased Eurofins DiscoverX KINOMEscan

ABL1-phosphorylated = target: T12, ABL1-phosphorylated (Homo sapiens, UniProt P00519); test: KINOMEscan binding; conditions: read-out: Percent Control
T12 construct: purchased Eurofins DiscoverX KINOMEscan

LIMK2 = target: T13, LIMK2 (Homo sapiens, UniProt P53671); test: KINOMEscan binding; conditions: read-out: Percent Control
T13 construct: purchased Eurofins DiscoverX KINOMEscan

TESK1 = target: T14, TESK1 (Homo sapiens, UniProt Q15569); test: KINOMEscan binding; conditions: read-out: Percent Control
T14 construct: purchased Eurofins DiscoverX KINOMEscan

PDGFRB = target: T15, PDGFRB (Homo sapiens, UniProt P09619); test: KINOMEscan binding; conditions: read-out: Percent Control
T15 construct: purchased Eurofins DiscoverX KINOMEscan

PKMYT1 = target: T16, PKMYT1 (Homo sapiens, UniProt Q99640); test: KINOMEscan binding; conditions: read-out: Percent Control
T16 construct: purchased Eurofins DiscoverX KINOMEscan

MEK2 = target: T17, MEK2 (Homo sapiens, UniProt P36507); test: KINOMEscan binding; conditions: read-out: Percent Control
T17 construct: purchased Eurofins DiscoverX KINOMEscan

[2] = target: T18, RPS6KA5(Kin.Dom.2-C-terminal) (Homo sapiens, UniProt O75582); test: KINOMEscan binding; conditions: read-out: Percent Control
T18 construct: RPS6KA5(Kin.Dom.2-C-terminal); purchased Eurofins DiscoverX KINOMEscan

EPHA1 = target: T19, EPHA1 (Homo sapiens, UniProt P21709); test: KINOMEscan binding; conditions: read-out: Percent Control
T19 construct: purchased Eurofins DiscoverX KINOMEscan

MAPKAPK5 = target: T20, MAPKAPK5 (Homo sapiens, UniProt Q8IW41); test: KINOMEscan binding; conditions: read-out: Percent Control
T20 construct: purchased Eurofins DiscoverX KINOMEscan

STK36 = target: T21, STK36 (Homo sapiens, UniProt Q9NRP7); test: KINOMEscan binding; conditions: read-out: Percent Control
T21 construct: purchased Eurofins DiscoverX KINOMEscan

MARK3 = target: T22, MARK3 (Homo sapiens, UniProt P27448); test: KINOMEscan binding; conditions: read-out: Percent Control
T22 construct: purchased Eurofins DiscoverX KINOMEscan

[3] = target: T23, JAK3(JH1domain-catalytic) (Homo sapiens, UniProt P52333); test: KINOMEscan binding; conditions: read-out: Percent Control
T23 construct: JAK3(JH1domain-catalytic); purchased Eurofins DiscoverX KINOMEscan

[4] = target: T24, RPS6KA4(Kin.Dom.1-N-terminal) (Homo sapiens, UniProt O75676); test: KINOMEscan binding; conditions: read-out: Percent Control
T24 construct: RPS6KA4(Kin.Dom.1-N-terminal); purchased Eurofins DiscoverX KINOMEscan

PKN1 = target: T25, PKN1 (Homo sapiens, UniProt Q16512); test: KINOMEscan binding; conditions: read-out: Percent Control
T25 construct: purchased Eurofins DiscoverX KINOMEscan

ACVR2A = target: T26, ACVR2A (Homo sapiens, UniProt P27037); test: KINOMEscan binding; conditions: read-out: Percent Control
T26 construct: purchased Eurofins DiscoverX KINOMEscan

IKK-beta = target: T27, IKK-beta (Homo sapiens, UniProt O14920); test: KINOMEscan binding; conditions: read-out: Percent Control
T27 construct: purchased Eurofins DiscoverX KINOMEscan

LYN = target: T28, LYN (Homo sapiens, UniProt P07948); test: KINOMEscan binding; conditions: read-out: Percent Control
T28 construct: purchased Eurofins DiscoverX KINOMEscan

MLCK = target: T29, MLCK (Homo sapiens, UniProt Q32MK0); test: KINOMEscan binding; conditions: read-out: Percent Control
T29 construct: purchased Eurofins DiscoverX KINOMEscan

STK39 = target: T30, STK39 (Homo sapiens, UniProt Q9UEW8); test: KINOMEscan binding; conditions: read-out: Percent Control
T30 construct: purchased Eurofins DiscoverX KINOMEscan

WNK4 = target: T31, WNK4 (Homo sapiens, UniProt Q96J92); test: KINOMEscan binding; conditions: read-out: Percent Control
T31 construct: purchased Eurofins DiscoverX KINOMEscan

T15 sequence (P09619 33-1106): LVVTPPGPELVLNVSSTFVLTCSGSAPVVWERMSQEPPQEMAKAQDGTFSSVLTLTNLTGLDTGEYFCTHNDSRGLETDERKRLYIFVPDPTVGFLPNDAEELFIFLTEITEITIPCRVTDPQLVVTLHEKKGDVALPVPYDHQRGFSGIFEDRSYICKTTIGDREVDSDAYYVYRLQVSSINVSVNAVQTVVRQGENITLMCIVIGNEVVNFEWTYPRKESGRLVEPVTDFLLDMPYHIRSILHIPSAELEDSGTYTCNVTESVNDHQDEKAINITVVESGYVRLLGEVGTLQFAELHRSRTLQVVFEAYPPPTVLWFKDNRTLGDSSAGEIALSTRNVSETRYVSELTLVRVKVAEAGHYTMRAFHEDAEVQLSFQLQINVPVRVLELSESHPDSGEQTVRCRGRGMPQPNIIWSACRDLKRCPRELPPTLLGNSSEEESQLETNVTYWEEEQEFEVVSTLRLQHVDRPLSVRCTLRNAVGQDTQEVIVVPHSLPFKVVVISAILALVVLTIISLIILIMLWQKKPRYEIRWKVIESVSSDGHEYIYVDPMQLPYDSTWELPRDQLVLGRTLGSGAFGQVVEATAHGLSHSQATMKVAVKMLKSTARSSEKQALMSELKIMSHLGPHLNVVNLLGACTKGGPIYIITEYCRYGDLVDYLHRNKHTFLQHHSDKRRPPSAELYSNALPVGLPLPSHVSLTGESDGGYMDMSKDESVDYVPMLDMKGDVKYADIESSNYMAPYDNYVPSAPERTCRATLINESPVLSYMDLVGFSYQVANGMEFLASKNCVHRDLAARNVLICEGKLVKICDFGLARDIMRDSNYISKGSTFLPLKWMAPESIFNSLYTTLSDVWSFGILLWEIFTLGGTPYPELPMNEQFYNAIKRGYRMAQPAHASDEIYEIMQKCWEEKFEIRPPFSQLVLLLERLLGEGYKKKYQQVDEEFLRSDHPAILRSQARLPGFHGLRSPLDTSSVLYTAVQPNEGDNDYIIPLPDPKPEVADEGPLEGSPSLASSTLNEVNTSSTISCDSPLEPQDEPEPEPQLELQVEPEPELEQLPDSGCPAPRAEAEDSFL
T17 sequence (P36507 whole entry): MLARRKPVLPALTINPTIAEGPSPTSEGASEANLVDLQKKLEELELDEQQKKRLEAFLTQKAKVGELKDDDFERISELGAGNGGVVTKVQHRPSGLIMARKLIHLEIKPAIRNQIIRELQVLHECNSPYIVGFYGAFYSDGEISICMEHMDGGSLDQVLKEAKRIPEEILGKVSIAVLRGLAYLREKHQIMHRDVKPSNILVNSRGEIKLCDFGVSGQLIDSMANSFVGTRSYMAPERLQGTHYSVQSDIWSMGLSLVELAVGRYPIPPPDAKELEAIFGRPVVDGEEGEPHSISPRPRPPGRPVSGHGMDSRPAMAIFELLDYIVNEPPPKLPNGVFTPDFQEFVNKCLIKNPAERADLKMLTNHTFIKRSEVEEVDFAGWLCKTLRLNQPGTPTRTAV
T23 sequence (P52333 781-1124 limits assumed): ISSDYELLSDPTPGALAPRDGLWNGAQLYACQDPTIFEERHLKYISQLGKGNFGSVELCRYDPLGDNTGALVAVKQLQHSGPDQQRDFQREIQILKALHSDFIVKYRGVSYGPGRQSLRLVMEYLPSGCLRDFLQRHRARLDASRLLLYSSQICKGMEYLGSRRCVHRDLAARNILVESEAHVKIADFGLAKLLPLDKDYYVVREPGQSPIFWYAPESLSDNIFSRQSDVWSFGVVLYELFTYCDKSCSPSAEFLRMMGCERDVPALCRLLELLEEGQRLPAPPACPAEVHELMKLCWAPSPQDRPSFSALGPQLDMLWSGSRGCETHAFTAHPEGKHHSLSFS
T19 sequence (P21709 26-976): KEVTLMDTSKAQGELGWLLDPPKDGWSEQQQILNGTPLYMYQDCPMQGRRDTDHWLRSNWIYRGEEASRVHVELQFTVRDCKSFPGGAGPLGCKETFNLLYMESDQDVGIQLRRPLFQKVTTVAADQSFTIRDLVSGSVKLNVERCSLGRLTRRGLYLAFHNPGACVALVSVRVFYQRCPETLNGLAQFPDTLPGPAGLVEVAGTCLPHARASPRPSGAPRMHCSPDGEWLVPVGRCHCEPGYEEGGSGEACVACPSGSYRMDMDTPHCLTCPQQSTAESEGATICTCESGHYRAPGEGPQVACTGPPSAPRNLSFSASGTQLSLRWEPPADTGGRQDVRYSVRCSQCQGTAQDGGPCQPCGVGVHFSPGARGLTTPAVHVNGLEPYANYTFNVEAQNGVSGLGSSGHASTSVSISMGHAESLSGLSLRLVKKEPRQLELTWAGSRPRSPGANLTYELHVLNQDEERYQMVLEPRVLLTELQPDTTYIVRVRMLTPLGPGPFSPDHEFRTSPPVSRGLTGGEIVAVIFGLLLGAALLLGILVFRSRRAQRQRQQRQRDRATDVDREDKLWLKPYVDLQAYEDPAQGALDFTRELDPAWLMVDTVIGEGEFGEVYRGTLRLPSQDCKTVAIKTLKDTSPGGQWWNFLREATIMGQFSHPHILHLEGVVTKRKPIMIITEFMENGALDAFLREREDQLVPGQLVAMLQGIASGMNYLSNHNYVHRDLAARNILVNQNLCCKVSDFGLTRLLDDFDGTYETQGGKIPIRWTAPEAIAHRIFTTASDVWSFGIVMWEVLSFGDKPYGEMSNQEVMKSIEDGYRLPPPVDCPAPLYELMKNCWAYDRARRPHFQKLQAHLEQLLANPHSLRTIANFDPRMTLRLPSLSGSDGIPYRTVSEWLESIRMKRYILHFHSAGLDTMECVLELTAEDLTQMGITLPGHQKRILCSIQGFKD
T25 sequence (Q16512 whole entry): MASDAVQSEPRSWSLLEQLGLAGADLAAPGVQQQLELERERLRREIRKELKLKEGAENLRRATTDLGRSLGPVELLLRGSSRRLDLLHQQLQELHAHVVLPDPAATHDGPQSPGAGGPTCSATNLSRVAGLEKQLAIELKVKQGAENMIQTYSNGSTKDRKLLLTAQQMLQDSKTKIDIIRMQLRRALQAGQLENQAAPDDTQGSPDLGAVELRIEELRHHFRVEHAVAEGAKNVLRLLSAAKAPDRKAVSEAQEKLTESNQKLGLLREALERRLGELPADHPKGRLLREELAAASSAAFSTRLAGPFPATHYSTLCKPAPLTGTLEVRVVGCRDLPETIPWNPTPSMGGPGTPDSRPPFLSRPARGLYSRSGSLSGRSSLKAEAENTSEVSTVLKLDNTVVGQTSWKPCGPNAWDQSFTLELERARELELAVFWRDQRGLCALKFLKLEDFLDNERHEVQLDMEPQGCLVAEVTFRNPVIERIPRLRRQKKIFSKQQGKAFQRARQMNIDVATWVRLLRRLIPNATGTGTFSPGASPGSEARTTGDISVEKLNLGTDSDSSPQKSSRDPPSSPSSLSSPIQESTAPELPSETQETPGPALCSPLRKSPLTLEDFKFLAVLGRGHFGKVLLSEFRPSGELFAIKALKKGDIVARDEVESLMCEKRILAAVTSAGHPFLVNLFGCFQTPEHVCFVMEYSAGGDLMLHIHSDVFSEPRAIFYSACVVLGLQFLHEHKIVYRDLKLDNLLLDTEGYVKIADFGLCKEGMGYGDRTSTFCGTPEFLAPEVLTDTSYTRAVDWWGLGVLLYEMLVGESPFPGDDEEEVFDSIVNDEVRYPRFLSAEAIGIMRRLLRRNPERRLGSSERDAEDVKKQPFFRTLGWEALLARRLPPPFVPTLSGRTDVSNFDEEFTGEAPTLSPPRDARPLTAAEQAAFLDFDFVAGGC
T14 sequence (Q15569 whole entry): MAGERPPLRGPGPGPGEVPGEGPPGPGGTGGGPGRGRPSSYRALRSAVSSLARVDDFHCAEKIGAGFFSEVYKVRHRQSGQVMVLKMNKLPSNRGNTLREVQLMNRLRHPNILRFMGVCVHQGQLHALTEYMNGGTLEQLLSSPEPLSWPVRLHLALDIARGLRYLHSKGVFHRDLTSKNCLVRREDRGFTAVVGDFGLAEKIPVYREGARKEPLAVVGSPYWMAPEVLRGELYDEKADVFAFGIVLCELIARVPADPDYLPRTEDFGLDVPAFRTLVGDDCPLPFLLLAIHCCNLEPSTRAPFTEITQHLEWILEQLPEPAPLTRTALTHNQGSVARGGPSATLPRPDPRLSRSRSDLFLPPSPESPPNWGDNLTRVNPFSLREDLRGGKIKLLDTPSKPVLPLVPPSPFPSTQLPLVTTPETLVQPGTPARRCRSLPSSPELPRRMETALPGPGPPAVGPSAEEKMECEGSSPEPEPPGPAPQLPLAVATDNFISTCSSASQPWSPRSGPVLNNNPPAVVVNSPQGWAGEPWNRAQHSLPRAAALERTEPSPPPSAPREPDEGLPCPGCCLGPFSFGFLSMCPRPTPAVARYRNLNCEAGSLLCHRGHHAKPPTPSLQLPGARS
T7 sequence (P62344 whole entry): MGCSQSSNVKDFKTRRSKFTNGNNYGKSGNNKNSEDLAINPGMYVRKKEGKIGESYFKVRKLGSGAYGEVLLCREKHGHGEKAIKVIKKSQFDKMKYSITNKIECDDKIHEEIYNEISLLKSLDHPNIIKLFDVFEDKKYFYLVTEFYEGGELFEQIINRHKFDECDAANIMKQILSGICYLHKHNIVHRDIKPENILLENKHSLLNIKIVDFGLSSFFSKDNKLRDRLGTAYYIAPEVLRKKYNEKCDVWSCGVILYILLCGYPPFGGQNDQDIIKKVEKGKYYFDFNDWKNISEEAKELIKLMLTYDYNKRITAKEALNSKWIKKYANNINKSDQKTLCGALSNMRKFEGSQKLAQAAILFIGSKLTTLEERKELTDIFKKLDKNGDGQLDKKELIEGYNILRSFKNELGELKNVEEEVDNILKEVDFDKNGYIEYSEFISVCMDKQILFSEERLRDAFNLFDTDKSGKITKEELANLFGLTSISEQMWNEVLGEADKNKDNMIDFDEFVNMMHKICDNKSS

CC(C)NC(=O)COc1cccc(-c2nc(Nc3ccc4[nH]ncc4c3)c3ccccc3n2)c1 [KD025, 2-(3-(4-((1H-indazol-5-yl)amino)quinazolin-2-yl)phenoxy)-N-isopropylacetamide]
lipid accumulation / adipocyte differentiation (ORO staining) (3T3-L1 cells; 3T3-L1, treated during differentiation, stained at day 8): suppressed the generation of lipid droplets; also recorded: reduces fat accumulation | quantity of lipid droplets (ORO staining) (3T3-L1 cells; 3T3-L1, treated during the early (days 0–1) or late (days 5–8) stage): ineffective; also recorded: lesser effect | quantity of lipid droplets (ORO staining) (3T3-L1 cells; 3T3-L1, treated during the intermediate stage (days 1–3)): acted specifically in the middle stage; also recorded: significantly reduced | remaining binding at 10 µM [1]: 7.8% | remaining binding at 10 µM (PIK3CD): 41% | remaining binding at 10 µM (ALK): 54% | remaining binding at 10 µM (TIE2): 55% | remaining binding at 10 µM (TRKA): 61% | remaining binding at 10 µM (GRK1): 64% | remaining binding at 10 µM (PFCDPK1(P.falciparum)): 66% | remaining binding at 10 µM (BMX): 69% | remaining binding at 10 µM (SRMS): 70% | remaining binding at 10 µM (FLT3-autoinhibited): 71% | remaining binding at 10 µM (KIT(V559D)): 72% | remaining binding at 10 µM (ABL1-phosphorylated): 73% | remaining binding at 10 µM (LIMK2): 73% | remaining binding at 10 µM (TESK1): 73% | remaining binding at 10 µM (PDGFRB): 76% | remaining binding at 10 µM (PKMYT1): 83% | remaining binding at 10 µM (MEK2): 86% | remaining binding at 10 µM [2]: 86% | remaining binding at 10 µM (EPHA1): 88% | remaining binding at 10 µM (MAPKAPK5): 89% | remaining binding at 10 µM (STK36): 91% | remaining binding at 10 µM (MARK3): 92% | remaining binding at 10 µM [3]: 94% | remaining binding at 10 µM [4]: 94% | remaining binding at 10 µM (PKN1): 97% | remaining binding at 10 µM (ACVR2A): 99% | remaining binding at 10 µM (IKK-beta): 100% | remaining binding at 10 µM (LYN): 100% | remaining binding at 10 µM (MLCK): 100% | remaining binding at 10 µM (STK39): 100% | remaining binding at 10 µM (WNK4): 100%
